± gives the expanded uncertainty stated by the source.
Test: Boiling temperature at pressure P
Settings: Liquid, DSC

Compound	Boiling temperature at pressure P (9.9 kPa) [°C]	Boiling temperature at pressure P (19.82 kPa) [°C]	Boiling temperature at pressure P (29.75 kPa) [°C]	Boiling temperature at pressure P (49.63 kPa) [°C]	Boiling temperature at pressure P (64.61 kPa) [°C]	Boiling temperature at pressure P (29.65 kPa) [°C]	Boiling temperature at pressure P (49.44 kPa) [°C]	Boiling temperature at pressure P (69.2 kPa) [°C]	Boiling temperature at pressure P (101.6 kPa) [°C]	Boiling temperature at pressure P (247.5 kPa) [°C]
CC(C)(C)c1ccccc1O [2-tert-butyl-1-hydroxybenzene]	145.4 ± 1.6	165.5 ± 2.6	178.6 ± 2.3	196.2 ± 3.1	206.1 ± 3.3					
Cc1ccccc1 [toluene]						72.4 ± 1.8	87.5 ± 2.5	98.0 ± 2.4	111.2 ± 3.2	145.5 ± 4.5

Source: the NIST ThermoML archive (doi:10.1016/j.tca.2016.05.011)
